# US4766110A, “Novel complex amido and imido derivatives of carboxyalkyl peptides” (priority 1986, dated 1988)
# Entries after “also recorded” stand apart in the source; their conditions may differ.
# Assays:
# [1] = tested on: mean arterial blood pressure response to angiotensin I; experiment: Intravenous effectiveness: blood pressure response to angiotensin I in anesthetized rats; format: in vivo; conditions: for Blood Pressure Response to 400 ng/kg of Angiotensin I: rat, 0.5 μmole/kg IV
# Description: Rats (190-290 g body weight) were fasted overnight and then anesthetized with intraperitoneal pentobarbital, 50-60 mg/kg. Tracheostomy was performed and the animals were ventilated mechanically. A cannula was inserted into a femoral vein for injection of angiotensin I, and a second cannula was inserted into a common carotid artery for direct measurement of arterial blood pressure. Heparin, 1,000 units, was injected via the femoral vein to prevent coagulation. Blood pressure was measured with a pressure transducer connected to a polygraph. The rats were injected with […] of angiotensin I in 20 μl of 0.9 g % NaCl, an amount of angiotensin I sufficient to raise mean arterial blood pressure by approximately 48 mm Hg.
# After the responsiveness of a given rat to angiotensin I was established, the named compound at 0.5 μmole/kg (drug dissolved in 15 microliters of 0.9% NaCl) was given intravenously. At time intervals, the effects of 400 ng/kg of angiotensin I on mean arterial blood pressure were tested. Results are shown below:
# Experiments were carried out using rats according to Example 30.
# [2] = molecular target: T1, human plasma angiotensin converting enzyme (Homo sapiens, UniProt P12821); experiment: In vitro assay of inhibition of angiotensin converting enzyme; format: biochemical; conditions: [3H]benzoyl-Gly-His-Leu 80 nM, pH 8.0, 37° C., 15 minutes, I50 approximates Ki
# T1 construct: partially-purified human plasma angiotensin converting enzyme; from tissue; host or cells: human plasma
# T1 sequence (P12821 30-1232 limits assumed): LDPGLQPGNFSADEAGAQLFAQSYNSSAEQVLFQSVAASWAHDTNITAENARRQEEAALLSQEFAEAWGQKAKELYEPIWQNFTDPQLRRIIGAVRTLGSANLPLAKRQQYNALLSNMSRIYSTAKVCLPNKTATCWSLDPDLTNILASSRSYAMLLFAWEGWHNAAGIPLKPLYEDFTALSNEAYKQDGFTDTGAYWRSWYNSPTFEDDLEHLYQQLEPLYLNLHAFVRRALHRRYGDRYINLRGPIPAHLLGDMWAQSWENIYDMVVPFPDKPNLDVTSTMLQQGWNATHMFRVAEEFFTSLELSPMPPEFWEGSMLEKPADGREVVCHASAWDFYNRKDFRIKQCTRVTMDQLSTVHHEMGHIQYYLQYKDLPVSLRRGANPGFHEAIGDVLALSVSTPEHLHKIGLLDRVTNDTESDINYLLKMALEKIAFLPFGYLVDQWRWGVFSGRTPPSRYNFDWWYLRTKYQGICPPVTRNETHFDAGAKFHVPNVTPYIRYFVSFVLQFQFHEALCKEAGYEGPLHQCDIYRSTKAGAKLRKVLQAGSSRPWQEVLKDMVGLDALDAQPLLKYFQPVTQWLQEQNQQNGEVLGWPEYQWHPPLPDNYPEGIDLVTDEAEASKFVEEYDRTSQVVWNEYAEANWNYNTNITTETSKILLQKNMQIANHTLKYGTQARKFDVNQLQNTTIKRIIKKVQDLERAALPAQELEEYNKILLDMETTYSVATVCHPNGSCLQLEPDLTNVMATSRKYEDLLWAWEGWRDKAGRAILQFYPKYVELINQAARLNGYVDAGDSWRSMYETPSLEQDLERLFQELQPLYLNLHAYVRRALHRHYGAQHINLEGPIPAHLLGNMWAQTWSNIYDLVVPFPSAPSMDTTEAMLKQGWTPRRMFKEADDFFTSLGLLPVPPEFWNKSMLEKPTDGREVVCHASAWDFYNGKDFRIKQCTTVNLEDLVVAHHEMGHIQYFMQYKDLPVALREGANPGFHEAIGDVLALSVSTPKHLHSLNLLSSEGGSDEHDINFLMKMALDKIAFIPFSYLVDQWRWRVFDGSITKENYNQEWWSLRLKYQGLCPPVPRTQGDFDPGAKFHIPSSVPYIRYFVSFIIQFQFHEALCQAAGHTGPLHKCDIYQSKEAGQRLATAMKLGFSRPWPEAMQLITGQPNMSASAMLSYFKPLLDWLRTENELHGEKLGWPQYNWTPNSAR
# Description: Compounds of this invention were assayed through the following protocol: 25 microliters of buffer (0.05M Hepes buffer, pH 8.0, plus 0.1M NaCl and 0.75M Na2 SO4) or 25 microliters of an inhibitor in buffer was added to the bottom of a 7 ml liquid scintillation vial. To this was added 100 microliters of buffered substrate [S], [^3 H]benzoyl-Gly-His-Leu, 80 nM (25 Ci/mmole). The reaction was started by adding 100 microliters of partially-purified human plasma angiotensin converting enzyme, or 100 microliters of buffer alone. The concentration of enzyme [E] used was that required to hydrolyze 8-12% of substrate when incubated at 37° C. for 15 minutes. The scintillation vials and their contents were incubated at 37° C. for 15 minutes, and the reactions were stopped by adding 200 microliters of 0.5M HCl to each vial. The radioactive reaction product, [^3 H]benzoyl-Gly(hippuric acid), was separated from unhydrolyzed substrate by adding and mixing (by inversion) 3 ml of Ventrex Cocktail No. 1 (Ventrex Laboratories, Inc., Portland, Maine), a fluid disclosed in copending U.S. patent application Ser. No. 184,653, filed Sept. 6, 1980. Extractable ^3 H was quantified by liquid scintillation counting. Substrate, in c.p.m., was quantified by scintillation counting of a vial containing 100 μl of buffered substrate in 5 ml of RIAfluor (New England Nuclear). The reaction mixture containing al constituents except for inhibitor was termed the control (C). The reaction mixture lacking enzyme and inhibitor was called the blank (B). Reaction mixtures containing inhibitor (varied over the range of 10^-4 -10^-12 M) were called the test (T) reactions. Under the conditions of this assay, the reaction obeys first order enzyme kinetics, thus the concentration of inhibitor required to inhibit the rate of hydrolysis by half (I50) approximates the Ki value. The results were estimated by use of the formula: [formula] where C=control c.p.m.; B=blank c.p.m.; [S]=substrate c.p.m. The factor 100 converts fractional substrate utilization into percentage utilization,and 1/15 minute corrects to percentage substrate utilization/minute. Thus, [E] is enzyme activity in percentage substrate utilization/minute. By substituting T for C, hydrolysis rates are computed for the test reaction mixtures. By comparing a given test rate against the control rate, the degree of inhibition can be computed.
# [3] = Loss of activity of aqueous SQ14225 solution on standing; format: physicochemical; conditions: 1 mg per ml, pH of about 8, ambient conditions
# [4] = cited from earlier work
IC50 [2],SMILES,Blood Pressure Response to 400 ng/kg of Angiotensin I ([1]; 5 min after administration),Blood Pressure Response to 400 ng/kg of Angiotensin I ([1]; 10 min after administration),Blood Pressure Response to 400 ng/kg of Angiotensin I ([1]; 15 min after administration),Blood Pressure Response to 400 ng/kg of Angiotensin I ([1]; 20 min after administration),Blood Pressure Response to 400 ng/kg of Angiotensin I ([1]; 25 min after administration),Blood Pressure Response to 400 ng/kg of Angiotensin I ([1]; 30 min after administration),Blood Pressure Response to 400 ng/kg of Angiotensin I ([1]; 50 min after administration),Blood Pressure Response to 400 ng/kg of Angiotensin I ([1]; 60 min after administration),Blood Pressure Response to 400 ng/kg of Angiotensin I ([1]; 70 min after administration),Blood Pressure Response to 400 ng/kg of Angiotensin I ([1]; 80 min after administration),Blood Pressure Response to 400 ng/kg of Angiotensin I ([1]; +1 min after administration),further results
5.2 nM,"CC(N[C@@H](CCC(=O)Nc1ccccc1)C(=O)O)C(=O)N1CCC[C@H]1C(=O)O (stereo partly drawn) [Example 26, N-[L-1-carboxy-3-(carbo-anilide)propyl]-Alanyl-L-Proline]",37 % of Control,37 % of Control,40 % of Control,40 % of Control,40 % of Control,35 % of Control,46 % of Control,46 % of Control,48 % of Control,52 % of Control,42 % of Control,"Blood Pressure Response to 400 ng/kg of Angiotensin I ([1]; 40 min after administration): 35 % of Control; Blood Pressure Response to 400 ng/kg of Angiotensin I ([1]; 90 min after administration): 54 % of Control; Blood Pressure Response to 400 ng/kg of Angiotensin I ([1]; 102 min after administration): 62.5 % of Control; IC50 ([2]; listed as N-[L-1-carboxy-3-(carboanilide)propyl]-D,L-Ala-L-Pro): ~1 nM"
0.23 nM,"CC(N[C@@H](CCC(=O)Nc1ccc(I)cc1)C(=O)O)C(=O)N1CCC[C@H]1C(=O)O (stereo partly drawn) [Example 27, N-[L-1-carboxy-3-(carbo-4-iodo-anilide)propyl]-Alanyl-L-Proline]",42 % of Control,46 % of Control,52 % of Control,60 % of Control,67 % of Control,71 % of Control,83 % of Control,92 % of Control,100 % of Control,104 % of Control,33 % of Control,"increase in intravenous effectiveness on removal of iodine ([1]; de-iodo compound versus the 4-iodoanilide): three-fold; Blood Pressure Response to 400 ng/kg of Angiotensin I ([1]; 35 min after administration): 71 % of Control; IC50 ([2]; listed as N-[L-1-carboxy-3-(carbo-4-iodoanilide)propyl]-D,L-Ala-L-Pro): ~1 nM"
140 nM,"CC(N[C@@H](CC(=O)N1CCCC1)C(=O)O)C(=O)N1CCC[C@H]1C(=O)O (stereo partly drawn) [Example 28, N-[L-1-carboxy-2-(carbopyrrolide)ethyl]-Alanyl-L-Proline]",,,,,,,,,,,,"IC50 ([2]; listed as N-[L-1-carboxy-2-(carbopyrrolide)ethyl]-D,L-Ala-Pro): ~100 nM"
,"C[C@H](CS)C(=O)N1CCC[C@H]1C(=O)O [SQ14225, D-3-mercapto-2-methylpropanoyl-L-proline]",,,,,,,,,,,,"activity of fresh aqueous solution on standing [3]: becomes substantially less active upon standing for as little as 30 minutes; renal biopsy findings ([4]; 13 patients treated with SQ14225, Hoorntje et al.): evidence of immune complex deposition along the glomerular basement membranes; adverse effects in man ([4]; patients, Gavras et al.): occasional allergic reactions; also recorded: fevers and rashes"
